Consider two molecules from patent publication US20250136544A1, “8-((4-HYDROXY-3-METHYLPHENYL)DIAZENYL)NAPHTHALENE-1,3-DISULFONIC ACID AS AN ANTIMICROBIAL COMPOUND” (KING FAISAL UNIVERSITY, priority 2023, published 2025).

The nature of the experiment: DPPH radical scavenging antioxidant test. It counts as biochemical. Particulars: 517 nm; for Inhibition (radical scavenging inhibition): 0.2 mL DPPH (0.75 mM), compound 3 μM in ethanol, 30 minutes in the dark. As for the experimental part:
The antioxidant properties of the 8-((4-hydroxyphenyl)diazenyl)naphthalene-1,3-disulfonic acid compound were studied by adding 0.2 mL DPPH (0.75 mM)) to 8-((4-hydroxyphenyl)diazenyl)naphthalene-1,3-disulfonic acid (III) (3 μM) in ethanol. After 30 minutes of incubation in the dark, the absorbance was read against a blank at 517 nm. Ascorbic acid (vitamin C) was used as standard antioxidants (positive control). A blank sample was prepared by 0.2 ml of DPPH in 3 mL ethanol. A negative control sample was run using ethanol instead of the sample. The radical scavenging inhibition was calculated using the following equation: […]
The antioxidant activity for the synthesized compound is listed in Table 1, using Vitamin C as a reference.

Turning to `O=S(=O)(O)c1cc(S(=O)(=O)O)c2c(/N=N/c3ccc(O)cc3)cccc2c1` [Product III, 8-((4-hydroxyphenyl)diazenyl)naphthalene-1,3-disulfonic acid], the “Inhibition (radical scavenging inhibition)” value is 52%. The “antioxidant potential in DPPH test compared to vitamin C (in words)” value (DPPH in vitro test, vitamin C as positive control) is reported as “high potential as an antioxidant compared to vitamin C”.

Consider `O=C1O[C@H]([C@@H](O)CO)C(O)=C1O` [vit c, Ascorbic acid, reference compound], for which the “Inhibition (radical scavenging inhibition)” value is on record as 74%.
